pKd: −log10 of the molar value. Entries after “also recorded” stand apart in the source; their conditions may differ. No end group written: not given here.
How the values were obtained:
[1] = tested on: RAD51 ΔN loop mutant; assay: Amylose pull-down of RAD51 loop mutant with MBP-BRCA2 fusions; details: RAD51 with DMC1's PhePP-binding loops; MBP-BRCA2 fusion
Text: (§1) For affinity pulldown experiments, MBP-fusions of BRCA2 fragments (Ex14, amino-acids 2387-2420, Ex14-Tr, amino acids 2401-2414, Ex27, amino acids 3270-3315, BRC4, amino acids 1519-1551) were cloned into pMAT11 vectors[54] and co-expressed with DMC1 ΔN, DMC1 ΔN loop mutant (in which DMC1 amino acids 147-GAGGYPG-153 and 178-NVDHDA-183 were replaced by the cognate sequences of RAD51 148-IDRGGGE-154 and 179-GLSGSD-184), RAD51 ΔN, RAD51 ΔN loop mutant (the reverse switch of DMC1 ΔN loop mutant), and RAD51. MBP-fusions and complexes were purified through amylose affinity chromatography.

[2] = molecular target: T1, DMC1 ΔN loop mutant (Homo sapiens, UniProt Q14565, A148D/A183D/D180S/D182S/G147I/G149R/G153E/H181G/N178G/P152G/V179L/Y151G); assay: Amylose pull-down of DMC1 ΔN loop mutant with MBP-BRCA2 fusions; assay type: binding; details: recombinant co-expression with MBP-BRCA2 fusion
T1 construct: DMC1 ΔN (83-340) were cloned into pHAT4; made in house
T1 sequence (Q14565 83-340 G147I/A148D/G149R/Y151G/P152G/G153E/N178G/V179L/D180S/H181G/D182S/A183D limits assumed): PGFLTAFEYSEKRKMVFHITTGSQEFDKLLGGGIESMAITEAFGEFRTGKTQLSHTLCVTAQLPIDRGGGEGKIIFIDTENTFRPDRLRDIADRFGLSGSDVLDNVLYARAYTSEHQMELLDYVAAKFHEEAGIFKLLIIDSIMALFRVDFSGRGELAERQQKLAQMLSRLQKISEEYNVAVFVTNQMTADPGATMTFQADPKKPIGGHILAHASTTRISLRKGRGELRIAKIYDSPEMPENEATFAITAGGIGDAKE
Text: as §1

[3] = molecular target: T2, DMC1 ΔN (Homo sapiens, UniProt Q14565); assay: Microscale thermophoresis (MST), BRCA2 peptides and DMC1 ΔN; assay type: binding; details: for pKd: MST from initial fluorescence, labelled DMC1 ΔN 150 nM, 10 mM HEPES pH 8.0, 150 mM NaCl, 0.05 % Tween-20, ~22 °C, mean, n = 3 independent experiments
T2 construct: DMC1 ΔN (83-340) were cloned into pHAT4; His6 (TEV-cleavable) (N, cleaved yes); made in house; host or cells: E. coli BL21 (DE3)
T2 sequence (Q14565 83-340): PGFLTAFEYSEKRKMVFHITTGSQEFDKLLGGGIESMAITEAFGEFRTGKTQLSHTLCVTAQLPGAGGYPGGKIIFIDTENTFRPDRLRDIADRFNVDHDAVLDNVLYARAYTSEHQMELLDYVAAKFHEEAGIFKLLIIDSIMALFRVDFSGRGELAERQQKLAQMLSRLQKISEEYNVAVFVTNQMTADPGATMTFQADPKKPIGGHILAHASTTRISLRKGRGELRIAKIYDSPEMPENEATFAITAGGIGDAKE
Method: (§2) DMC1 ΔN and DMC1 ΔN loop mutant were labelled in 10 mM HEPES pH 8.0, 150 mM NaCl with an amine reactive fluorescent dye (MonolithTM Protein Labelling Kit BLUE-NHS, Nanotemper GmbH). A serial dilution of titrant (peptide) was prepared in 10 mM HEPES pH 8.0, 150 mM NaCl, 0.05 % Tween-20. The concentration of labelled DMC1 ΔN or DMC1 ΔN loop mutant were constant at 150 nM and the concentration of the interacting peptide was titrated in 1:1 dilutions starting from 750 µM. An equal volume (10 µl) of the serial dilution and of the diluted labelled DMC1 were mixed and loaded in glass capillaries (MonolithTM NT.115 MST Premium Coated Capillaries, Nanotemper GmbH). The initial fluorescence and the thermophoretic mobility were measured on a Monolith NT.115 system (NanoTemper Technologies). The excitation power was 45 % and MST power was 60 % at room temperature (~22 °C). Laser on and off times were set at 5 and 30 seconds, respectively. Data analysis was performed with NT Affinity Analysis software.
(§3) As a change in initial fluorescence was detected, SDS denaturation (SD) tests were performed according to the manufacturer’s instructions to determine whether these changes were ligand-induced and whether the data could therefore be used to derive affinity measurements. Briefly, 7 µl of the samples containing the three highest and three lowest concentrations of peptide were mixed with 7 µl of denaturation buffer (4 % SDS, 40 mM DTT). After incubating each for 5 minutes at 95 °C to denature the proteins and subject to brief centrifugation, the samples were loaded onto Premium Coated Capillaries and their initial fluorescence measurements recorded. […] Initial fluorescence readings were used to derive binding affinities.

[4] = molecular target: T2, DMC1 ΔN; assay: Amylose pull-down of DMC1 ΔN with MBP-BRCA2 fusions; assay type: binding; details: recombinant co-expression with MBP-BRCA2 fusion
Text: as §1

[5] = tested on: RAD51 ΔN; assay: Amylose pull-down of RAD51 ΔN with MBP-BRCA2 fusions; assay type: binding; details: recombinant co-expression with MBP-BRCA2 fusion
Text: as §1

[6] = molecular target: T1, DMC1 ΔN loop mutant; assay: Microscale thermophoresis (MST), BRCA2 peptide and DMC1 ΔN loop mutant; assay type: binding; details: labelled DMC1 ΔN loop mutant 150 nM; pH 8.0
Method: as §2, with “The excitation power was 45 % and MST power was 60 % at room temperature (~22 °C). Laser on and off times were set at 5 and 30 seconds, respectively. Data analysis was performed with NT Affinity Analysis software.” left out
as §3, with “Briefly, 7 µl of the samples containing the three highest and three lowest concentrations of peptide were mixed with 7 µl of denaturation buffer (4 % SDS, 40 mM DTT).” left out

Substance | binding in pull-down [1] | binding in pull-down [2] | pKd [3] | binding in pull-down [4] | binding in pull-down [5] | affinity of Ex14 relative to Ex27 ([3]; MST, DMC1 ΔN) | interaction by MST (in words) [6]
Ex27: BRCA2 exon 27 PhePP peptide, amino acids 3270-3315 (ALDFLSRLPLPPPVSPICTFVSPAAQKAFQPPRSCGTKYETPIKKK; UniProt P51587 3270-3315, looked up, fragment) | failed to | failed to bind; also recorded: failed to interact with Ex27 | < 4.02 | not | binds selectively |  | 
ATRNEKMRHLITTGRPTKVFVPPFKTKSHFHRVE [Ex14] | failed to | abolished its ability to bind Ex14; also recorded: blocked Ex14- | 4.52 | bind | binds selectively to BRCA2 Ex27 rather than Ex14 | over threefold higher affinity than Ex27 | not detectable; also recorded: abolished its ability to bind Ex14

From article PMC11436757, “BRCA2 stabilises RAD51 and DMC1 nucleoprotein filaments through a conserved interaction mode” (Nature Communications, 2024)
